Source: US20250017889A1, “INHIBITORS OF P1B-TYPE ATPASES” (THE CURATORS OF THE UNIVERSITY OF MISSOURI, priority 2021, published 2025)

What was measured:
ATP7A(E1030K) = molecular target: T1, ATP7A(E1030K) (Homo sapiens, UniProt Q04656, E1030K); experiment: Microscale thermophoresis (MST) binding to GFP-ATP7A(E1030K) mutant; settings: relative to wild type ATP7A
T1 construct: expressed in transfected cells; host or cells: HEK293 (detergent-free lysate)
T1 sequence (Q04656 1-1500 E1030K): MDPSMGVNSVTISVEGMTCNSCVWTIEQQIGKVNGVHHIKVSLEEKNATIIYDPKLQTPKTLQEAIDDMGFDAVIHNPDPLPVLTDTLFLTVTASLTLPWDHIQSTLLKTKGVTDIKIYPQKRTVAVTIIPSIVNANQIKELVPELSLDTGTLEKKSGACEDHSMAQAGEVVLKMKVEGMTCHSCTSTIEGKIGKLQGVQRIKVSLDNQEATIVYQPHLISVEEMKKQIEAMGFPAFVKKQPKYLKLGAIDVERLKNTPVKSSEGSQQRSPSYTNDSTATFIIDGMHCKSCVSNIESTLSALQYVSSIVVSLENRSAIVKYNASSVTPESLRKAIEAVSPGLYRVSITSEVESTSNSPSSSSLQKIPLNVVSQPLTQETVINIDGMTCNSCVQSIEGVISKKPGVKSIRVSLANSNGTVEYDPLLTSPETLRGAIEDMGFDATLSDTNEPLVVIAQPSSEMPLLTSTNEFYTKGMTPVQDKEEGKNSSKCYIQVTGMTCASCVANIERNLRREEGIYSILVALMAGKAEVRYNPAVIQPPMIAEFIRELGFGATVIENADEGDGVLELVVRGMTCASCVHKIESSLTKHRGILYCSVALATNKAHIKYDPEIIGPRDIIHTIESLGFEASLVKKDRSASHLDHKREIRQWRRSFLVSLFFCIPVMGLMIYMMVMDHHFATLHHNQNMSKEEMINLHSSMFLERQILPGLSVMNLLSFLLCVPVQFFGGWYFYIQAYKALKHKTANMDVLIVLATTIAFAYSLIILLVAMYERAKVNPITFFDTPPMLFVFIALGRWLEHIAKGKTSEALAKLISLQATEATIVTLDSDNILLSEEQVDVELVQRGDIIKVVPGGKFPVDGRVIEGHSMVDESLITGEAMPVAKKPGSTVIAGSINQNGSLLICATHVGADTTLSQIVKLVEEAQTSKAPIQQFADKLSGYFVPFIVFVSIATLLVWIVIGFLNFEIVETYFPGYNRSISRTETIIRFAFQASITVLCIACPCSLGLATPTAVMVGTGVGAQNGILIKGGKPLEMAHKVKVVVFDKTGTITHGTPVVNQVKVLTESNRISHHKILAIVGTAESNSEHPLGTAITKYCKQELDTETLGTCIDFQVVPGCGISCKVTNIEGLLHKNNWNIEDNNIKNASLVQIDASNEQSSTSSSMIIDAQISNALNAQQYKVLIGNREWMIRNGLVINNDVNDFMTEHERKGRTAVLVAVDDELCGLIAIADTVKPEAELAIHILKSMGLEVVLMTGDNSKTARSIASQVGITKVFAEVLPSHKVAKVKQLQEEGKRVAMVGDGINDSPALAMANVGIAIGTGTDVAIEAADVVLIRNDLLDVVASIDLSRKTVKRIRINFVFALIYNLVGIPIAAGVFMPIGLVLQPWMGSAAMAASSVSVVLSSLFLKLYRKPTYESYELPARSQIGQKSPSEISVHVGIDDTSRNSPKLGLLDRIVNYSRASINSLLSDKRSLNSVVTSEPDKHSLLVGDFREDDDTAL
Text: 7A is a model of MKV3-coordinating residues in ATP7A which are identical to those of ATP7B except that the negatively charged glutamate at position 1030 (E1030) of ATP7A corresponds to a positively lysine at position 1013 (K1013) in ATP7B. […] To confirm this the E1030 residue in ATP7A was mutated to a lysine to generate an ATP7A(E1030K) mutant protein.

GFP alone = experiment: Microscale thermophoresis (MST), GFP alone as negative control; assay type: binding
Text: Coordinating residues D935 and E798 are predicted to bind copper during transport.

B16 melanoma lung tumors = experiment: Melanin production in B16 melanoma tumors on the lungs of mice; assay type: in vivo, C57BL/6 mice; settings: 50 mg/kg subcutaneously every other day for 7 days
Procedure: Previous studies have shown that ATP7A is essential for copper delivery into the secretory pathway to tyrosinase, a copper-dependent enzyme required for melanogenesis. […] To confirm that ATP7A is required for tyrosinase activity, B16 melanoma cells were generated in which the ATP7A gene was deleted by CRISPR-CAS9 to generate ATP7A^KO cells. As expected, tyrosinase activity was absent in the B16 ATP7A^KO cells. […] Wild type B16 melanoma cells were injected by tail vein into C57BL/6 mice to establish metastatic tumors on the lungs. […] Left panel images show the lungs of three different mice immediately after dissection. In control mice, darkly pigmented melanoma nodules were readily apparent on the lungs (white arrows).

LOX activity = LOX activity secreted into conditioned media of cancer cells; assay type: cell-based; settings: 5 μM, 4 days
4T1, B16 and LLC cells = experiment: Sensitivity of cells to elevated copper concentrations; assay type: cell-based; settings: 10 μM, 48 h
Text: It is well-known that copper export via ATP7A is the major mechanism by which cells are protected against rising copper levels, which is facilitated by Cu-stimulated trafficking of ATP7A from the trans-Golgi to the plasma membrane. Therefore, a predicted consequence of an ATP7A inhibitor would be an increase of the sensitivity of cells to high copper concentrations.

4T1 cells = experiment: Sensitivity of 4T1 cells to metal ions, crystal violet assay; assay type: cell-based
Procedure: All metals were added as chloride salts except silver, which was added as silver nitrate (AgNO3).

Which “increase of binding affinity by E1030K mutation in ATP7A” value (ATP7A(E1030K)) does the source give for `N#CC(C(=O)Nc1cccc(C(F)(F)F)c1)C(=S)Nc1ccccc1Cl` (centres unmarked) [MKV3] here?
The value was “approximately 2.7 fold”.

What about the “binding to GFP alone” value (GFP alone) of the same compound?
Its value is “not to GFP alone”.

What about the “pigment of melanoma nodules on the lungs” value (B16 melanoma lung tumors) of the same compound?
Its value is “very little pigment”.

What about the “LOX activity in conditioned media” value (LOX activity; 4T1 breast cancer cells) of the same compound?
Its value is “reduction in LOX activity”.

And the “LOX activity in conditioned media” value (LOX activity; LLC lung cancer cells)?
The value was “reduction in LOX activity”.

And the copper toxicity (4T1, B16 and LLC cells)?
Its copper toxicity is “strongly augmented copper toxicity”.

And the “sensitivity to copper and silver” value (4T1 cells; 10 μM MKV3, 4T1 cells)?
The value was “conferred sensitivity to as little as 5 μM copper and silver”.

What about the “sensitivity to other metals” value (4T1 cells; 10 μM MKV3, other metals up to 50 μM) of the same compound?
Its value is “did not affect the sensitivity”.
